What was measured:
[1] = system: C57BL/6J mice; assay: Amphetamine-induced locomotor activity, co-injection, C57BL/6J mice; assay type: in vivo; conditions: 60 min
Protocol: (§1) Experimentally naïve mice, of at least 12 weeks of age, were used for all behavioral experiments. The mice were randomly assigned to treatment or control groups, balanced by sex and weight. Locomotor activity was assessed using the automated locomotor analysis monitors (Omnitech Electronics, Columbus, OH, United States). The apparatus included four open field monitors. Each Open Field monitor consisted of sets of 16 light beams arrayed in the horizontal X and Y axes. The hardware detected beams broken by the animal, which allowed the software to determine the location of the mouse in the cage. Total distance covered by mice was used to characterize locomotor activity of the animals. The monitors were divided into four compartments (20 cm × 20 cm). Animals were tested individually for defined periods with 5-min intervals. The mice were first weighed and then placed into the apparatus, allowing for 30 min habituation. Following the habituation, the mice were removed from the al apparatus and injected with drugs (see below for administration) or vehicle and returned immediately to the locomotor chamber. The locomotor activity was then measured for additional 1 h. After the experiments, the animals were euthanized by cervical dislocation.
All drug solutions were prepared freshly on the day of the experiment and injected i.p. at the volume of 10 ml/kg. […] Amphetamine was dissolved in 0.9% saline at a concentration of 0.2 mg/mL.
The effect of compound 22 (5, 15, 20, 30, and 50 mg/kg) on locomotor activity, in mice, in combination to a single, sub-maximal dose of amphetamine (2 mg/kg) was carried out (Figure 2). […] Although not significant, there was a trend toward an increase in locomotor activity at the dose of 5 mg/kg as well (28% increase, p = 0.32).
FIGURE 2 In vivo studies with compound 22 co-injected with amphetamine in WT mice. Wild type C57BL/6J mice were first habituated for 30 min followed by the co-injection of amphetamine (2 mg/kg) and saline or compound 22 at doses 5, 15, 20, 25, 30, and 50 mg/kg. The locomotor activity was assessed for 60 min after the injection. (A) Locomotor activity over time for 2 mg/kg amphetamine only or co-injected with 5, 15, or 20 mg/kg compound 22; (B) locomotor activity over time for 2 mg/kg amphetamine only or co-injected with 30 or 50 mg/kg compound 22; (C) sum of locomotor activity over 60 min after the injection of amphetamine and compound 22. Data are means ± SEM; N = 12–18 for compound 22 treated alone and N = 66 for amphetamine treated alone. A one way ANOVA was performed [F(5,126) = 4.788, p = 0.0005] followed by Dunnett’s post hoc analyses (^∗p < 0.05, ^∗∗∗p < 0.001).

[2] = system: WT littermates (C57BL/6J × 129S2/Sv); assay: Amphetamine-induced locomotor activity, co-injection, WT littermates; assay type: in vivo, mice; conditions: 5 mg/kg co-injected with amphetamine 2 mg/kg, p = 0.049
Protocol: The Taarl^-/- (TAAR1-KO) mice were obtained from Lundbeck ([Wolinsky et al., 2007]). All wild type (WT) and TAAR1-KO mice used for experiments were generated from TAAR1-KO heterozygous mice in a C57BL/6J x 129S1/Sv mixed background.
as §1, with “chamber.” for “chamber. The locomotor activity was then measured for additional 1 h. After the experiments, the animals were euthanized by cervical dislocation.”

[3] = system: TAAR1-KO mice; assay: Stereotypic counts, co-injection with amphetamine, TAAR1-KO mice; assay type: in vivo; conditions: only 15 mg/kg, co-injected with amphetamine 2 mg/kg
Protocol: as §1, with “Following the habituation, the mice were removed from the al apparatus and injected with drugs (see below for administration) or vehicle and returned immediately to the locomotor chamber.” left out, “After the experiments, the animals were euthanized by cervical dislocation.” left out
Supplementary file Image_2.TIF: FIGURE S2 In vivo studies with TAAR1-KO mice and compound 22 on stereotypic counts activity. […] The sum of stereotypic counts was assessed over 60 min after the injection of amphetamine and compound 22 in WT (solid bars) or TAAR1-KO mice (spotted bars). […] The sum of stereotypic counts was assessed over 60 min following the injection in WT (solid bars) or TAAR1-KO mice (dotted bars). […]

[4] = system: TAAR1; set-up: method as in Lam et al., 2015b; conditions: previous study; ref Lam et al., 2015b; read-out: IC50 (TAAR1 antagonist); cited from earlier work

## Clc1ccc(CNCc2ccc(Cn3cncn3)cc2)c(Cl)c1 [compound 22]
[1]; 5 mg/kg i.p. co-injected with amphetamine 2 mg/kg, not significant, p = 0.32
  increase in amphetamine-stimulated locomotor activity: 28%
[1]; 15 mg/kg i.p. co-injected with amphetamine 2 mg/kg, p = 0.04
  increase in amphetamine-stimulated locomotor activity: 44%
[1]; 20 mg/kg i.p. co-injected with amphetamine 2 mg/kg, p = 0.02
  increase in amphetamine-stimulated locomotor activity: 57%
[1]; 30 mg/kg i.p. co-injected with amphetamine 2 mg/kg, p = 0.0009
  increase in amphetamine-stimulated locomotor activity: 77%
[1]; 50 mg/kg i.p. co-injected with amphetamine 2 mg/kg
  change in amphetamine-stimulated locomotor activity: no difference in locomotor activity
[2]
  potentiation of amphetamine locomotor response: 44%
[3]
  stereotypic counts: statistically significant increase in stereotypic counts
[4]
  IC50: > 100 µM
